Legend:
[1] = target: Death-associated protein kinase 2 (Homo sapiens) (UniProt Q9UIK4); assay: Inhibition of human DAPK2 using KKLNRTLSFAEPG as substrate at 1 uM in presence of 32P-ATP by Hotspot assay relative to control; values are per cent of control
[2] = target: Serine/threonine-protein kinase 10 (Homo sapiens) (UniProt O94804); assay: Inhibition of human LOK/STK10 using RLGRDKYKTLRQIRQ as substrate at 1 uM in presence of 32P-ATP by Hotspot assay relative to control; values are per cent of control
[3] = target: Mitogen-activated protein kinase kinase kinase 14 (Homo sapiens) (UniProt Q99558); assay: Inhibition of human NIK/MAP3K14 using at 1 uM in presence of 32P-ATP by Hotspot assay relative to control; values are per cent of control
[4] = target: Macrophage colony-stimulating factor 1 receptor (Homo sapiens) (UniProt P07333); assay: Inhibition of human FMS using poly[Glu:Tyr] (4:1) as substrate at 1 uM in presence of 32P-ATP by Hotspot assay relative to control; values are per cent of control
[5] = target: Calcium/calmodulin-dependent protein kinase type 1B (Homo sapiens) (UniProt Q6P2M8); assay: Inhibition of human CAMK1b using KKALRRQETVDAL as substrate at 1 uM in presence of 32P-ATP by Hotspot assay relative to control; values are per cent of control
[6] = target: Ephrin type-A receptor 4 (Homo sapiens) (UniProt P54764); assay: Inhibition of human EPHA4 using poly[Glu:Tyr] (4:1) as substrate at 1 uM in presence of 32P-ATP by Hotspot assay relative to control; values are per cent of control
[7] = target: T1, Mitogen-activated protein kinase 12 (Homo sapiens) (UniProt P53778); assay: Inhibition of human P38g using myelin basic protein as substrate at 1 uM in presence of 32P-ATP by Hotspot assay relative to control; values are per cent of control
T1 sequence (whole entry): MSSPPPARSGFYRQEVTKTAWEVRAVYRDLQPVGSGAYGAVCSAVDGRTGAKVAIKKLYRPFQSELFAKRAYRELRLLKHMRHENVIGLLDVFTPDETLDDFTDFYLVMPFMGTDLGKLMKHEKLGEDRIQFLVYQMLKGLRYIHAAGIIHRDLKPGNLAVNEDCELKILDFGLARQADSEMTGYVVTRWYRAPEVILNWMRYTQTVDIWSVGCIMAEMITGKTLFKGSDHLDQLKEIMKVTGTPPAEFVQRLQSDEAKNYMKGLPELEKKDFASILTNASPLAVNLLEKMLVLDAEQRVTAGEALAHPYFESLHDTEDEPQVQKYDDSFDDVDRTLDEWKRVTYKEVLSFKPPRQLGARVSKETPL

[8] = target: T2, NUAK family SNF1-like kinase 1 (Homo sapiens) (UniProt O60285); assay: Inhibition of human ARK5/NUAK1 using KKKVSRSGLYRSPSMPENLNRPR as substrate at 1 uM in presence of 32P-ATP by Hotspot assay relative to control; values are per cent of control
T2 sequence (whole entry): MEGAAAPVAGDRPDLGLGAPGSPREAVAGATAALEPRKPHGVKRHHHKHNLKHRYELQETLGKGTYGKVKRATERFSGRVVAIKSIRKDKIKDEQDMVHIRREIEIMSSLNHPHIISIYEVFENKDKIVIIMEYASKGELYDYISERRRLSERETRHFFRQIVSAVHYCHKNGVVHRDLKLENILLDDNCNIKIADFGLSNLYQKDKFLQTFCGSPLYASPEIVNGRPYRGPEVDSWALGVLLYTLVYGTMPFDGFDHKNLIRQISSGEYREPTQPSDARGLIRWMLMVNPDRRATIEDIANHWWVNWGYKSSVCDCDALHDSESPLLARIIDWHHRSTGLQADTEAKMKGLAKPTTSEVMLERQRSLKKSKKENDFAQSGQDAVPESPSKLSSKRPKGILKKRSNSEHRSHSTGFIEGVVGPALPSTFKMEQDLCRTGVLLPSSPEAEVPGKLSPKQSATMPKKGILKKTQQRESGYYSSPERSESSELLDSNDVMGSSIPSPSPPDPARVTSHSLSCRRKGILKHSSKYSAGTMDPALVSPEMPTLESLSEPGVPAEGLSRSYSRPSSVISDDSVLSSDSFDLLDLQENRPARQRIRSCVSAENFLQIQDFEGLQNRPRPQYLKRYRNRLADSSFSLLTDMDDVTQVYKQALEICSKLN

HT-29 = assay: Inhibition of TNF-alpha induced necroptosis in human HT-29 cells assessed as increase in cell viability incubated for 24 hrs in presence of zVAD and SMAC007 by Cell Titer-Glo luminescent cell viability assay; assay type: functional, cell-based; conditions: dose 0.01-3 µM
[9] = target: CDK4/Cyclin D3 (Homo sapiens) (UniProt P11802+P30281); assay: Inhibition of human CDK4/cyclin D3 using RB-CTF as substrate at 1 uM in presence of 32P-ATP by Hotspot assay relative to control; values are per cent of control
[10] = target: TGF-beta receptor type-2 (Homo sapiens) (UniProt P37173); assay: Inhibition of human TGFBR2 using myelin basic protein as substrate at 1 uM in presence of 32P-ATP by Hotspot assay relative to control; values are per cent of control
[11] = target: Tyrosine-protein kinase JAK1 (Homo sapiens) (UniProt P23458); assay: Inhibition of human JAK1 using poly[Glu:Tyr] (4:1) as substrate at 1 uM in presence of 32P-ATP by Hotspot assay relative to control; values are per cent of control
[12] = target: Tyrosine-protein kinase Srms (Homo sapiens) (UniProt Q9H3Y6); assay: Inhibition of human SRMS using poly[Glu:Tyr] (4:1) as substrate at 1 uM in presence of 32P-ATP by Hotspot assay relative to control; values are per cent of control

Sequence of TGF-beta receptor type-2 (Homo sapiens) (P37173 whole entry): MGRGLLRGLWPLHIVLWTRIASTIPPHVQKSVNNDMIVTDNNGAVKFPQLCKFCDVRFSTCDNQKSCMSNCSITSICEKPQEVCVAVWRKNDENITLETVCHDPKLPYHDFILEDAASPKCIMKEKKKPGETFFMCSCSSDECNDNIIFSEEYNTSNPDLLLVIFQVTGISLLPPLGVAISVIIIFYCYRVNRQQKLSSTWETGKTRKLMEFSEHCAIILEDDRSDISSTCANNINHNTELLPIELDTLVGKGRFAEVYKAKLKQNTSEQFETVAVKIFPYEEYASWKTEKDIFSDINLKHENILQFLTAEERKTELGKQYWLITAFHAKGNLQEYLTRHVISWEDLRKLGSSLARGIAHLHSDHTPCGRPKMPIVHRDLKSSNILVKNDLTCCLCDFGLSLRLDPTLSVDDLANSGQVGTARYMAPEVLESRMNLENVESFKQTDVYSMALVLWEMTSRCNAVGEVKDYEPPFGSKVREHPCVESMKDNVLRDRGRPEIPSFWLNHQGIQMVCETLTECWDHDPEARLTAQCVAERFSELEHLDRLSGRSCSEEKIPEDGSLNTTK
Sequence of Tyrosine-protein kinase JAK1 (Homo sapiens) (P23458 whole entry): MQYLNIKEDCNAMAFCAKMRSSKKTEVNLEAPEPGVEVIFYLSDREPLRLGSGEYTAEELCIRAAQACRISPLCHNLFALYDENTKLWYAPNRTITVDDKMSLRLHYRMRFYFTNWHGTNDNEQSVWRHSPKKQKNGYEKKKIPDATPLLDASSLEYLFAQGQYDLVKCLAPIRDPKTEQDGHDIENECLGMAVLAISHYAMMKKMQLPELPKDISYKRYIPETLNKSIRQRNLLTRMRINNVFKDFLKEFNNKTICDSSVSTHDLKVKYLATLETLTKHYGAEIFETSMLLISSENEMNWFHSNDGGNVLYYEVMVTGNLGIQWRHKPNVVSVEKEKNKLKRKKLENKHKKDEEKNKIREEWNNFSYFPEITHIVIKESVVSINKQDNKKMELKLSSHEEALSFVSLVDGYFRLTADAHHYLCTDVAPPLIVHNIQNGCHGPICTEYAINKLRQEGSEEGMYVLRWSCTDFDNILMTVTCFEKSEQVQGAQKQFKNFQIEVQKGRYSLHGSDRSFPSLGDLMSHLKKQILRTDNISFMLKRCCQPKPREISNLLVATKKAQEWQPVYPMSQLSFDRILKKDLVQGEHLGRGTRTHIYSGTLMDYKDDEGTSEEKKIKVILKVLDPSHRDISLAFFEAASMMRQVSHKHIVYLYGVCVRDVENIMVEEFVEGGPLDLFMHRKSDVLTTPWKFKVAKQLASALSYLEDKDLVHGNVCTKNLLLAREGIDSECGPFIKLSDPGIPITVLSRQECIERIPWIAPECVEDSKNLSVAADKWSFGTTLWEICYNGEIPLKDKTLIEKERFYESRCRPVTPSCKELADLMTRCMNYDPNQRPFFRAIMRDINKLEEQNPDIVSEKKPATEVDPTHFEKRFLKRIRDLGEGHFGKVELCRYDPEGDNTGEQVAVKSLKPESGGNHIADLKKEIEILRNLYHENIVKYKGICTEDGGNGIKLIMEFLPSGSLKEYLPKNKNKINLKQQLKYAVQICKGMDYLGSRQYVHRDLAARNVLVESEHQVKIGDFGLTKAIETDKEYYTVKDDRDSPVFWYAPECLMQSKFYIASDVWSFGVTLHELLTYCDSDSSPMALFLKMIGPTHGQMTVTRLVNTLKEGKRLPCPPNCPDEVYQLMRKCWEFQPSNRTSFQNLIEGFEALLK
Sequence of Macrophage colony-stimulating factor 1 receptor (Homo sapiens) (P07333 whole entry): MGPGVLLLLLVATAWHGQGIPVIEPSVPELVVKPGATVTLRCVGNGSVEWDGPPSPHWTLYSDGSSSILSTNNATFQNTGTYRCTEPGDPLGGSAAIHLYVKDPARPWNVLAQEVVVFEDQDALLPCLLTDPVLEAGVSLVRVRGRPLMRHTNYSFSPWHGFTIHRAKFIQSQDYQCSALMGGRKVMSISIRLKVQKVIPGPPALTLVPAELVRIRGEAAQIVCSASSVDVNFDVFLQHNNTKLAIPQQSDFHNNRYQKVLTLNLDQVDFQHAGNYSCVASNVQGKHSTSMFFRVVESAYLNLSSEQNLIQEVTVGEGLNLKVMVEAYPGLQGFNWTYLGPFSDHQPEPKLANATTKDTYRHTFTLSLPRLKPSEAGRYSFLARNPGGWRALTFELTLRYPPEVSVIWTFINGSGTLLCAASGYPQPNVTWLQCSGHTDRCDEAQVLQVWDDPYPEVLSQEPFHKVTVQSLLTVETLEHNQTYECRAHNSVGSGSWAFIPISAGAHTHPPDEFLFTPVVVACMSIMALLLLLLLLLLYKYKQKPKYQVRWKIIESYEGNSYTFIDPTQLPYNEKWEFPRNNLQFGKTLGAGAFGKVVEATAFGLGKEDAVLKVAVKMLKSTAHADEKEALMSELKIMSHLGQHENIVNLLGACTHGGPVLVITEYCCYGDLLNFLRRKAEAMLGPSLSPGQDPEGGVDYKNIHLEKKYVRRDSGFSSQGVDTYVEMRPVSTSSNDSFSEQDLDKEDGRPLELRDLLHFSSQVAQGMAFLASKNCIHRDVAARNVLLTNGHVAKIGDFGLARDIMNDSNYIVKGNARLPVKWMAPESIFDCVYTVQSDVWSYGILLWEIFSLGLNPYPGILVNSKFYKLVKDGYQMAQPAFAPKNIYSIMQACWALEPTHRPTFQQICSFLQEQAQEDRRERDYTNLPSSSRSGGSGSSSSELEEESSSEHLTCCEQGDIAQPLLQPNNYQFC
Sequence of Mitogen-activated protein kinase kinase kinase 14 (Homo sapiens) (Q99558 whole entry, looked up): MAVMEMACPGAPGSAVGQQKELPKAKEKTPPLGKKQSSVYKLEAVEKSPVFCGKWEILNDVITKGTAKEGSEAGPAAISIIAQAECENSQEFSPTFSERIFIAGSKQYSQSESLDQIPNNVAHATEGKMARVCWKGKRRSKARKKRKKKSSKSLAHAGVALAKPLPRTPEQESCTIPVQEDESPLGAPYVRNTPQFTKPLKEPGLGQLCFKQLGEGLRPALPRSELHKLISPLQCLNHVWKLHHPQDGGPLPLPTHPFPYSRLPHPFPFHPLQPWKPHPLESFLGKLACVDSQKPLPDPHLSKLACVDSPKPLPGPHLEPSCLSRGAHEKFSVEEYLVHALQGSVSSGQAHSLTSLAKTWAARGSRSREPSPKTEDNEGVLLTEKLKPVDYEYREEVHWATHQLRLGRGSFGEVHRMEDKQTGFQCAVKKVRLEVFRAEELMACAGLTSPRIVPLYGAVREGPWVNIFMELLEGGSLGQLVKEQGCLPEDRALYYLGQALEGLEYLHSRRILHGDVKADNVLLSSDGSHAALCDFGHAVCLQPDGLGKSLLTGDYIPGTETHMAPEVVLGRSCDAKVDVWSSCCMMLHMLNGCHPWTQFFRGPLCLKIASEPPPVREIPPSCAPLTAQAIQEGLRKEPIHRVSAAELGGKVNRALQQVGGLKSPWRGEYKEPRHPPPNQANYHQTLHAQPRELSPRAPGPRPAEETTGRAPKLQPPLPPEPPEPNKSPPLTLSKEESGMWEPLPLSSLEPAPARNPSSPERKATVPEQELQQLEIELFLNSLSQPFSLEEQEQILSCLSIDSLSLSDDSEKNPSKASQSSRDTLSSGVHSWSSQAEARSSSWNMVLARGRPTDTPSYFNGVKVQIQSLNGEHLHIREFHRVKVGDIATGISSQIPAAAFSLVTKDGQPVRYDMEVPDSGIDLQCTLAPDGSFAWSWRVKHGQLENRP
Sequence of Ephrin type-A receptor 4 (Homo sapiens) (P54764 whole entry): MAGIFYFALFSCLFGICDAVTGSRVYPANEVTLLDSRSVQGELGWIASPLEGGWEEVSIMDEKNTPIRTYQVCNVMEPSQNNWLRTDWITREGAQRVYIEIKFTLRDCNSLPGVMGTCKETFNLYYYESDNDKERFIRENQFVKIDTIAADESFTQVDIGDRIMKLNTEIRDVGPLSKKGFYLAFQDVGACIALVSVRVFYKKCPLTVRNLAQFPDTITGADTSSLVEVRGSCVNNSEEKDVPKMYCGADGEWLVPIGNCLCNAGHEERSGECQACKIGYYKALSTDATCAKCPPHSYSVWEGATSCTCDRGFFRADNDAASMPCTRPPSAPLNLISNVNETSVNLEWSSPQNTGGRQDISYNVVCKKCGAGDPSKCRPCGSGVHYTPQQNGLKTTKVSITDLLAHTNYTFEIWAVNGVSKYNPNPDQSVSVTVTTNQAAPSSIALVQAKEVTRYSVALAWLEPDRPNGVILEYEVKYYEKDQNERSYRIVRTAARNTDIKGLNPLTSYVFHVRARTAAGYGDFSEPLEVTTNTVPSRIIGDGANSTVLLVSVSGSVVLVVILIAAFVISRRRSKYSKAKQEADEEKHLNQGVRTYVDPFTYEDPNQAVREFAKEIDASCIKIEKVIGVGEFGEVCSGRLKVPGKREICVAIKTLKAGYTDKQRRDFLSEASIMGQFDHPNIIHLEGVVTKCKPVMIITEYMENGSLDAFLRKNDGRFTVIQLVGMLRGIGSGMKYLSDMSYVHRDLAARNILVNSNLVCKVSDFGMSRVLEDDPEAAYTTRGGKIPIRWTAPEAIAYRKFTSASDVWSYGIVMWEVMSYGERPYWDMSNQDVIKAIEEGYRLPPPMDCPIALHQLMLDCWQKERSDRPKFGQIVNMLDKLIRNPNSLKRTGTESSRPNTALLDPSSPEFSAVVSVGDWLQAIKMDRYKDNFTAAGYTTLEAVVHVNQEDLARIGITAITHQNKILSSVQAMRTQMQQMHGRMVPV
Sequence of Calcium/calmodulin-dependent protein kinase type 1B (Homo sapiens) (Q6P2M8 whole entry): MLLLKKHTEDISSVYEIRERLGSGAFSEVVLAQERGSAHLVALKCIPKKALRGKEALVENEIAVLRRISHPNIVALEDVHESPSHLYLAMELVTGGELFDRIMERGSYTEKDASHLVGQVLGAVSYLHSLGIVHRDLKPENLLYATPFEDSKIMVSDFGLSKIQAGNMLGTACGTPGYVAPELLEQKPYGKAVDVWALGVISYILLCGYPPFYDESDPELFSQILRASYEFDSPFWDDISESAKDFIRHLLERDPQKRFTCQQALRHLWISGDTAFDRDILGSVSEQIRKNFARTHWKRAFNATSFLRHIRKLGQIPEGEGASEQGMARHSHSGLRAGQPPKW

Cc1cc(-c2cnc(N)c3c(-c4ccc5scnc5c4)csc23)n(C)n1
residual activity [1]: 82.4%
residual activity [2]: 78.2%
residual activity [3]: 92.9%
residual activity [4]: 19.4%
residual activity [5]: 98.5%
residual activity [6]: 48.9%
residual activity [7]: 105%
residual activity [8]: 98.5%
inhibition (HT-29): Dose-Dependent Effect
residual activity [9]: 108%
residual activity [10]: 35.2%
residual activity [11]: 88.3%
residual activity [12]: 78.8%

CNC(=O)c1ccc2c(c1)ncn2-c1ccc(CC(=O)OC(C)(C)C)cc1
residual activity [1]: 96.3%
residual activity [2]: 96.8%
residual activity [3]: 95.3%
residual activity [4]: 91.8%
residual activity [5]: 90.2%
residual activity [6]: 95.5%
residual activity [7]: 95.7%
residual activity [8]: 91.7%
inhibition (HT-29): Dose-Dependent Effect
residual activity [9]: 98.2%
residual activity [10]: 73.3%
residual activity [11]: 98.2%
residual activity [12]: 105%

CC(C)S(=O)(=O)c1ccc2nccc(Nc3ccc4scnc4c3)c2c1
residual activity [1]: 104%
residual activity [2]: 70.9%
residual activity [3]: 89.5%
residual activity [4]: 108%
residual activity [5]: 87.8%
residual activity [6]: 70.9%
residual activity [7]: 98.5%
residual activity [8]: 98.4%
inhibition (HT-29): Dose-Dependent Effect
residual activity [9]: 102%
residual activity [10]: 101%
residual activity [11]: 94.9%
residual activity [12]: 77.1%
